This is an account of results in US10118903B2, “Aminotriazole-based KDM1A inhibitors as epigenetic modulators” (MUSC FOUNDATION FOR RESEARCH DEVELOPMENT, priority 2014, dated 2018).

The subject of one data set is LSD1:CoREST complex. In words: Pull-down of HDAC1/CoREST/LSD1 complex with LSD1 antibody, Western blot for CoREST. Type of data set: cell-based. Particulars: primary feline cardiomyocytes, 3 h, 1 μM; LSD1 antibody pull-down. The method, then:
Co-immunoprecipitation analysis for LSD1:CoREST complex following treatment from primary rat cardiomyocytes with 5 μM and 1 μM C1 was performed as described above. Lysates pulled down with LSD1 antibody and western blotted for CoREST (n=2).
As to “Verlindamycin tetrahydrochloride [Compound 2d, reference compound]”, the “association between LSD1 and CoREST” value is reported as “Only compound C1 disrupted the association”.

Test system in a further data set: not listed separately
In words: Solubility noted in the LSD1 screen. It counts as physicochemical. Particulars: LSD1 screen at 10 μM.
As for `Nc1nnc(NCc2c(Cl)cccc2Oc2ccc(SC(F)(F)F)cc2)[nH]1` [Compound 5i, N^3-(2-chloro-6-(4-((trifluoromethyl)thio)phenoxy)benzyl)-4H-1,2,4-triazole-3,5-diamine], the “solubility (reason why % inhibition was not determined)” value was “Not Determined (Insoluble)”.

In the case of `Nc1nnc(NCc2c(Cl)cccc2Oc2ccc(Br)cc2Br)[nH]1` [Compound 5j], the “solubility (reason why % inhibition was not determined)” value is “Not Determined (Insolube)”.

As for `CSc1ccc(Oc2cccc(Cl)c2CNc2nnc(N)[nH]2)cc1` [Compound 5l, N^3-(2-chloro-6-(4-((methyl)thio)phenoxy)benzyl)-4H-1,2,4-triazole-3,5-diamine], the “solubility (reason why % inhibition was not determined)” value is on record as “Not Determined (Insolube)”.

A further data set relates to mouse heart. Kind of data set: Langendorff isolated heart model, ischemia/reperfusion. Particulars: 1 hour pre-treatment with 1.0 μM; versus vehicle. The source says:
(§1) In the Langendorff preparation, the heart is removed with preservation of a portion of the afferent and efferent blood vessels; it is then perfused in a reverse fashion via the aorta, usually with a nutrient rich, oxygenated solution (e.g. Krebs-Henseleit solution or Tyrode's solution). The backwards pressure causes the aortic valve to shut, forcing the solution into the coronary vessels, which normally supply the heart tissue with blood. This feeds nutrients and oxygen to the cardiac muscle, allowing it to continue beating for several hours after its removal from the animal. This is a useful preparation because it allows the addition of drugs (via the perfusate) and observation of their effect on the heart without the complications involved with in vivo experimentation, such as neuronal and hormonal effects from living animal (Broadley, K. J., 1970). A pressure transducer is inserted to measure a number of cardiac performance parameters including left ventricular developed pressure, left ventricular end diastolic pressure, heart rate, etc. Following the Langendorff procedure, the myocardium is cut into cross sections, and infarcted tissue is identified by the inability to take up stain; thus infarcted areas appear white, while healthy areas appear red.
The compounds described herein may be used to protect the myocardium from injury following an ischemic event. In FIG. 6, a mouse heart was subjected to ischemia by ligation of the afferent vessel in a Langendorff preparation, as described above. Prior to the induction of ischemia, hearts were either pre-treated with vehicle, verlindamycin or C1. […] In FIG. 8, the results of an experiment to measure infarcted tissue in a myocardial cross-section are shown. Results are expressed as a percentage of the area of infarct with respect to total surface area. […] The HDAC1/CoREST/LSD1 complex was pulled down with an LSD1 antibody and a Western blot for CoREST was performed.
For “Verlindamycin tetrahydrochloride [Compound 2d, reference compound]”, the “left ventricular end diastolic pressure” value is on record as “reduced to near-normal levels”.

Still in this data set, the particulars now being: pre-treatment before ischemia; after reperfusion; versus vehicle.
As for “Verlindamycin tetrahydrochloride [Compound 2d, reference compound]”, the “left ventricular developed pressure” value is listed as “restored to nearly normal levels”.

A further data set deals with murine myocardium. Kind of data set: Infarct area in myocardial cross-section after induced myocardial ischemia. Type of data set: in vivo, mouse. Particulars: 10 mg/kg; versus vehicle.
Excerpt: as §1, with “Following the Langendorff procedure, the myocardium is cut into cross sections, and infarcted tissue is identified by the inability to take up stain; thus infarcted areas appear white, while healthy areas appear red.” left out
The compounds described herein may be used to protect the myocardium from injury following an ischemic event. […] Results are expressed as a percentage of the area of infarct with respect to total surface area. […]
“Verlindamycin tetrahydrochloride [Compound 2d, reference compound]”: the “infarct area as a percentage of the total left ventricular area” value was “significantly more effective than treatment with vehicle”.

The next data set deals with T1, human recombinant LSD1 (Homo sapiens, UniProt O60341).
T1 construct: purchased Cayman Chemical Item #700120
In words: LSD1 inhibitor screening assay (Cayman Chemical kit, fluorometric). Type of data set: biochemical. Particulars: 10 μM compound; Chembridge analogues table. The method, then:
LSD1 Inhibitor Screening Assay:
In short, 10 μM of compound was combined with the fluorometic substrate 10-acetyl-3,7-dihydroxyphenoxazine, horseradish peroxidase, human recombinant LSD1, and 100 μM dimethylated lysine at residue 4 [ARTK(diMe)[…]] (Seq. ID No: 1) for 30 mins at 37° C. Plates were read using an excitation wavelength of 535 nm and an emission wavelength of 590 nm with a SpectraMax M5 Microplate reader.
With `Fc1ccc(COc2ccc(Cl)cc2CNc2nc[nH]n2)cc1` [Compound C2, N-(5-chloro-2-((4-fluorobenzyl)oxy)benzyl)-1H-1,2,4-triazol-3-amine], the inhibition at 10 µM came out at 27.7 ± 9%.

On to `Fc1ccccc1COc1ccc(Cl)cc1CNc1nc[nH]n1` [Compound C3, N-(5-chloro-2-((2-fluorobenzyl)oxy)benzyl)-1H-1,2,4-triazol-3-amine], for which the inhibition at 10 µM is 30.6 ± 6.4%.

As for `Clc1ccc(CNc2nc[nH]n2)c(Cl)c1` [Compound C4, N-(2,4-dichlorobenzyl)-1H-1,2,4-triazol-3-amine], the inhibition at 10 µM is 2.2 ± 6.9%.

`COc1cccc(NCc2nn[nH]n2)c1OCc1ccc(F)cc1Cl` [Compound C5, N-((2H-tetrazol-5-yl)methyl)-2-((2-chloro-4-fluorobenzyl)oxy)-3-methoxyaniline]: the inhibition at 10 µM was -3.1 ± 7.8%.

As for `Clc1ccccc1CNc1nc[nH]n1` [Compound C6, N-(2-chlorobenzyl)-1H-1,2,4-triazol-3-amine], the inhibition at 10 µM came to 4.6 ± 6.9%.

With `COc1cccc(CNc2nnc[nH]2)c1OCc1ccccc1Cl` [Compound C7, N-(2((2-chlorobenzyl)oxy)-3-methoxybenzyl)-4H-1,2,4-triazo1-3-amine], the inhibition at 10 µM stood at 18.1 ± 8.2%.

In the case of `Cc1ccc(COc2ccc(Cl)cc2CNc2nn[nH]n2)cc1` [Compound C8, N-(5-chloro-2-((4-methylbenzyl)oxy)benzyl)-2H-tetrazol-5-amine], the inhibition at 10 µM came out at 6.9 ± 7.5%.

As for `Clc1cccc(Cl)c1CNc1nc[nH]n1` [Compound C9, N-(2,6-dichlorobenzyl)-1H-1,2,4-triazol-3-amine], the inhibition at 10 µM worked out at 30.9 ± 7.7%.

As to `CCOc1cc(Cl)cc(CNc2nc[nH]n2)c1` [Compound C10, N-(3-chloro-5-ethoxybenzyl)-1H-1,2,4-triazol-3-amine], the inhibition at 10 µM was -3 ± 12.7%.

As to `Clc1ccc(OCc2ccccc2)c(CNc2nn[nH]n2)c1` [Compound C11, N-(2-(benzyloxy)-5-chlorobenzyl)-2H-tetrazol-5-amine], the inhibition at 10 µM was 19.9 ± 8.4%.

Regarding `COc1cccc(CNc2nn[nH]n2)c1OCc1ccccc1Cl` [Compound C12, N-(2-((2-chlorobenzyl)oxy)-3-methoxybenzyl)-2H-tetrazol-5-amine], the inhibition at 10 µM came to 22.1 ± 7.3%.

For `COc1ccc(Cl)cc1CNc1nn[nH]n1` [Compound C13, N-(5-chloro-2-methoxybenzyl)-2H-tetrazol-5-amine], the inhibition at 10 µM was 30.8 ± 5.7%.

As for `CCOc1ccc(Cl)cc1CNc1nn[nH]n1` [Compound C14, N-(5-chloro-2-ethoxybenzyl)-2H-tetrazol-5-amine], the inhibition at 10 µM was found to be 20.8 ± 5%.

The same data set, now with this note: 10 μM compound; synthetic analogues of C1, Table 2.
As for `Cc1ccc(Oc2cccc(Cl)c2CNc2nnc(N)[nH]2)cc1` [Compound 5b, N^3-(2-chloro-6-(p-tolyloxy)benzyl)-4H-1,2,4-triazole-3,5-diamine], the inhibition at 10 µM is 59.3 ± 6.1%.

On to `Cc1ccc(C(C)C)c(Oc2cccc(Cl)c2CNc2nnc(N)[nH]2)c1` [Compound 5c, N^3-(2-chloro-6-(2-isopropyl-5-methylphenoxy)benzyl)-4H-1,2,4-triazole-3,5-diamine], for which the inhibition at 10 µM was determined as 56.3 ± 3.2%.

As to `COc1cccc(Oc2cccc(Cl)c2CNc2nnc(N)[nH]2)c1` [Compound 5d, N^3-(2-chloro-6-(3-methoxyphenoxy)benzyl)-4H-1,2,4-triazole-3,5-diamine], the inhibition at 10 µM turned out to be 44.6 ± 5.1%.

Consider `Nc1nnc(NCc2ccccc2)[nH]1` [Compound 5e], for which the inhibition at 10 µM was 41 ± 17.4%.

Turning to `CC(C)(C)c1ccc(Oc2cccc(Cl)c2CNc2nnc(N)[nH]2)cc1` [Compound 5f, N^3-(2-(4-(tert-butyl)phenoxy)-6-chlorobenzyl)-4H-1,2,4-triazole-3,5-diamine], the inhibition at 10 µM worked out at 58.2 ± 8.8%.

For the compound `Cc1cc(C)cc(Oc2cccc(Cl)c2CNc2nnc(N)[nH]2)c1` [Compound 5g, N^3-(2-chloro-6-(3,5-dimethylphenoxy)benzyl)-4H-1,2,4-triazole-3,5-diamine], the inhibition at 10 µM amounted to 67.9 ± 6.5%.

As for `Nc1nnc(NCc2c(Cl)cccc2Oc2cc(C(F)(F)F)cc(C(F)(F)F)c2)[nH]1` [Compound 5h, N^3-(2-(3,5-bis(trifluoromethyl)phenoxy)-6-chlorobenzyl)-4H-1,2,4-triazole-3,5-diamine], the inhibition at 10 µM worked out at 44.9 ± 4.6%.

In the case of `Nc1nnc(NCc2c(Cl)cccc2Oc2ccc(Br)cc2C(F)(F)F)[nH]1` [Compound 5k, N^3-(2-(4-bromo-2-(trifluoromethyl)phenoxy)-6-chlorobenzyl)-4H-1,2,4-triazole-3,5-diamine], the inhibition at 10 µM turned out to be 67.8 ± 5.4%.

As for `COc1cc(C)ccc1Oc1cccc(Cl)c1CNc1nnc(N)[nH]1` [Compound 5m, N^3-(2-chloro-6-(2-methoxy-4-methylphenoxy)benzyl)-4H-1,2,4-triazole-3,5-diamine], the inhibition at 10 µM worked out at 84.7 ± 3.2%.

Turning to `COc1cc(OC)cc(Oc2cccc(Cl)c2CNc2nnc(N)[nH]2)c1` [Compound 5n, N^3-(2-chloro-6-(3,5-dimethoxyphenoxy)benzyl)-4H-1,2,4-triazole-3,5-diamine], the inhibition at 10 µM was determined as 63.3 ± 8.6%.

Consider `Cc1ccccc1Oc1cccc(Cl)c1CNc1nnc(N)[nH]1` [Compound 5q], for which the inhibition at 10 µM was determined as 74.2 ± 5.2%.

On to `Nc1nnc(NCc2c(Cl)cccc2Oc2ccc3c(c2)OCO3)[nH]1` [Compound 5r, N^3-(2-(benzo[d][1,3]dioxol-5-yloxy)-6-chlorobenzyl)-4H-1,2,4-triazole-3,5-diamine], for which the inhibition at 10 µM is 65.8 ± 6.4%.

On to `COc1ccc(Sc2cccc(Cl)c2CNc2nnc(N)[nH]2)cc1OC` [Compound 5t, N^3-(2-chloro-6-((3,4-dimethoxyphenyl)thio)benzyl)-4H-1,2,4-triazole-3,5-diamine], for which the inhibition at 10 µM worked out at 53.2 ± 1.7%.

Regarding `COc1cccc(Cl)c1CNc1nc(N)n[nH]1` [Compound H1], the inhibition at 10 µM stood at 73.1 ± 1.6%.

Regarding `Nc1n[nH]c(NCc2c(Cl)cccc2Oc2cccc3ccccc23)n1` [Compound M1], the inhibition at 10 µM was determined as 95.3 ± 2.8%.

Consider `Nc1n[nH]c(NCc2c(Cl)cccc2Oc2ccc(-c3ccccc3)cc2)n1` [Compound M3], for which the inhibition at 10 µM turned out to be 66.8 ± 4.4%.

`CCOc1cc(C)ccc1Oc1cccc(Cl)c1CNc1nc(N)n[nH]1` [Compound M4]: the inhibition at 10 µM was found to be 77.7 ± 2.9%.

Consider `Nc1n[nH]c(NCc2c(Cl)cccc2Oc2cccc3cc[nH]c23)n1` [Compound M5], for which the inhibition at 10 µM came out at 67.6 ± 3.7%.

Consider `Nc1n[nH]c(NCc2c(Cl)cccc2Oc2ccc(F)cc2)n1` [Compound M6], for which the inhibition at 10 µM was determined as 76.4 ± 2.2%.

Regarding `COc1cc(Oc2cccc(Cl)c2CNc2nc(N)n[nH]2)cc(OC)c1OC` [Compound M7], the inhibition at 10 µM worked out at 67.6 ± 6.2%.

For the compound `COc1cc(Oc2ccccc2CNc2nc(N)n[nH]2)cc(OC)c1OC` [Compound M8], the inhibition at 10 µM is 56 ± 4.1%.

For `Nc1n[nH]c(NCc2ccccc2Oc2cccc3ccccc23)n1` [Compound M9], the inhibition at 10 µM was found to be 78.1 ± 2.6%.

Take `CCOc1cc(C)ccc1Oc1ccccc1CNc1nc(N)n[nH]1` [Compound M10]: the inhibition at 10 µM is 73.8 ± 4.4%.
